Laboratory results taken from patent US20100120762A1, “Triazine derivatives as inhibitors of phosphodiesterases” (WYETH, priority 2008, published 2010).
Entries after “also recorded” stand apart in the source; their conditions may differ.

Assays:
PDE2A (NM002599) = molecular target: T1, PDE2A (NM002599) (Homo sapiens, UniProt O00408); assay: Inhibition of recombinant PDE2A (expressed in baculovirus/SF21-cells); format: biochemical; conditions: recombinant PDE2A, 0.5 μM [3H]-cAMP, 1000 nM cGMP, 37° C., 30 minutes, SPA; read-out: PDE2A IC50
T1 construct: made in house; host or cells: baculovirus / SF21 insect cells
Procedure, shortened: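 Human PDE2A membrane fraction from baculovirus-infected SF21 cells; 0.5 μM [3H]-cAMP with 1000 nM cGMP as activator in 50 mM Tris-HCl/5 mM MgCl2 pH 7.4, 30 min at 37° C, SPA read-out. Non-specific activity measured without cGMP; IC50 by 2-parameter Hill fit.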

PDE10A1 (AB 020593) = molecular target: T2, PDE10A1 (AB 020593) (Homo sapiens, UniProt Q9Y233); assay: Inhibition of recombinant PDE10A (baculovirus/SF21 system); format: biochemical; conditions: recombinant cytosolic PDE10A, 0.1 μM [3H]-cAMP, 37° C., 30 minutes, SPA; read-out: PDE10A IC50
T2 construct: made in house; host or cells: baculovirus / SF21 insect cells (gene synthesized by Entelechon GmbH)
Procedure, shortened: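 Cytosolic PDE10A1 expressed in SF21 cells via baculovirus, incubated with 0.1 μM [3H]-cAMP in 50 mM Tris-HCl/5 mM MgCl2, pH 7.4, 30 min at 37 °C. SPA-bead scintillation read-out, with enzyme-free wells as background. IC50 from Hill plot, 2-parameter model.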

mice [1] = assay: Light and dark box test; format: in vivo, mouse; conditions: 5 min exploration, FIG. 2
Text: The light and dark box is an established animal model of anxiety (Crawley, 1985). The light and dark box consists of two chambers (each 30×30 cm) that are connected by an opening. There is an aversive chamber with white walls that is brightly lit (600 lux) and a dark chamber with black walls that is only lit by an infrared lamp ([…]). Untreated mice predominately stay in the dark chamber whereas mice treated with an anxiolytic compound go more often into the light chamber resulting in an increased number of transitions between the boxes and increased time in the light box. In addition the distance traveled in the dark chamber is regarded as an activity-related parameter. For the experiment, mice are placed in the light box after the pre-treatment time. Recording time starts when the mouse enters the dark box for the first time. Then the animal has 5 min to explore the two chambers. The behavior of the mice is recorded by video and analyzed by VideoMot 2 (TSE systems, Germany). […] Results are analyzed by t-test (two groups) or one way analysis of variance (ANOVA) when several groups are compared. Tukey test is used for individual comparison. P<0.05 is regarded as significant.

mice [2] = assay: Forced swim test; format: in vivo, mouse; conditions: immobility recorded during last 4 min of 6 min, FIG. 1
Protocol: The forced swim test is an established animal model of depression (Yacoubi et al., 2001). Mice which are forced to swim in a restricted area from which they cannot escape will rapidly cease attempts to escape and adopt a characteristic immobile posture which can be readily identified and timed. Immobility is taken as depression-related behaviour in the animal (Porsolt, 1979). For the test a glass cylinder (height: 20 cm, internal diameter: 15 cm) containing 11 cm water maintained at 23° C. is used. On the day of experiment the mice are forced to swim in the water for 6 min and the immobility time is recorded during the last 4 min of the 6-min-period. Afterwards animals are removed from the water, dried with a paper towel and put under infrared light. […] Results are analyzed by t-test (two groups) or one way analysis of variance (ANOVA) when several groups are compared. Tukey test is used for individual comparison. P<0.05 is regarded as significant.

Female Wistar-rats = assay: Novel object recognition test; format: in vivo, rat; conditions: MK-801 0.025 mg/kg intraperitoneally, compound given orally 30 min prior to the test session, FIG. 3
Protocol: The novel object recognition is an animal model of learning and memory (Rutten et al., 2006a, 2006b).
The novel object recognition is performed in glass aquaria (40×60×40 cm) that have 3 black walls and one transparent wall. The floor consists of black, antislip PVC. Objects of different material (iron, plastic, coated hardwood) and forms and similar size are used for the experiment. The objects are positioned 10 cm from the wall and 35-40 cm from each other. Female Wistar-rats are used for this experiment.
One day before the experiment rats have 15 min to habituate to the arena and two objects.
On the first day of the experiment rats are placed into the arena and have five min to explore two equal objects. To disturb the learning process, MK-801 at 0.025 mg/kg is administered intraperitoneally on the first day of the experiment 30 min before the test starts.
On the second day of the experiment (24 h later) rats are again placed into the arena and have 5 min to explore one of the old objects and a novel object. […]
The following parameters are recorded: • 1. the time the rats spent with each object on the first day • 2. the time the rats spent with each object on the second day • 3. percent of time rats spent with the novel object on the second day […]
Results are analyzed by t-test (two groups) or one way analysis of variance (ANOVA) when several groups are compared. […]

T2 sequence (Q9Y233 other isoform, or with tags, fused parts or gaps): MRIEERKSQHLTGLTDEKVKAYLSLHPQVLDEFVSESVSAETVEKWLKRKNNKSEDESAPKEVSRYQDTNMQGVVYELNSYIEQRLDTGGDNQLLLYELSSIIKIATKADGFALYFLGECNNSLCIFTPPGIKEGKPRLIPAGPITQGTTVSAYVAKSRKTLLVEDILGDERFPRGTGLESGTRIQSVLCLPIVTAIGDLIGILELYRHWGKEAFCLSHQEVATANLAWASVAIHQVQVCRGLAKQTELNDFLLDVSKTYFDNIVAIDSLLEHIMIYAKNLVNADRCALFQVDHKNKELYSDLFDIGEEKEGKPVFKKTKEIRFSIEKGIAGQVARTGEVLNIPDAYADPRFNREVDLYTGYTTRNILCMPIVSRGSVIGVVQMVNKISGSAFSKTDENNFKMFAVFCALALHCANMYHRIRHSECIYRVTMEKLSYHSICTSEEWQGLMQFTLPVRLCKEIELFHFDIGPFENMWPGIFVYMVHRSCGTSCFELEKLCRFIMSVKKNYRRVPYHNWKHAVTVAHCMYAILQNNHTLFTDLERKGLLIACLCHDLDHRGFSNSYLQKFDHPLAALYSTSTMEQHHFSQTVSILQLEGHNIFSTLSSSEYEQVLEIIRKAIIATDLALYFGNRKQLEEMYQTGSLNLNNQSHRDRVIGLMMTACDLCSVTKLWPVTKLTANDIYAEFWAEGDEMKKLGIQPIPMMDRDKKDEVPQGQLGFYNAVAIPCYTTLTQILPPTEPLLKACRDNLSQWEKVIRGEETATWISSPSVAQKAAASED
T1 sequence (O00408 whole entry): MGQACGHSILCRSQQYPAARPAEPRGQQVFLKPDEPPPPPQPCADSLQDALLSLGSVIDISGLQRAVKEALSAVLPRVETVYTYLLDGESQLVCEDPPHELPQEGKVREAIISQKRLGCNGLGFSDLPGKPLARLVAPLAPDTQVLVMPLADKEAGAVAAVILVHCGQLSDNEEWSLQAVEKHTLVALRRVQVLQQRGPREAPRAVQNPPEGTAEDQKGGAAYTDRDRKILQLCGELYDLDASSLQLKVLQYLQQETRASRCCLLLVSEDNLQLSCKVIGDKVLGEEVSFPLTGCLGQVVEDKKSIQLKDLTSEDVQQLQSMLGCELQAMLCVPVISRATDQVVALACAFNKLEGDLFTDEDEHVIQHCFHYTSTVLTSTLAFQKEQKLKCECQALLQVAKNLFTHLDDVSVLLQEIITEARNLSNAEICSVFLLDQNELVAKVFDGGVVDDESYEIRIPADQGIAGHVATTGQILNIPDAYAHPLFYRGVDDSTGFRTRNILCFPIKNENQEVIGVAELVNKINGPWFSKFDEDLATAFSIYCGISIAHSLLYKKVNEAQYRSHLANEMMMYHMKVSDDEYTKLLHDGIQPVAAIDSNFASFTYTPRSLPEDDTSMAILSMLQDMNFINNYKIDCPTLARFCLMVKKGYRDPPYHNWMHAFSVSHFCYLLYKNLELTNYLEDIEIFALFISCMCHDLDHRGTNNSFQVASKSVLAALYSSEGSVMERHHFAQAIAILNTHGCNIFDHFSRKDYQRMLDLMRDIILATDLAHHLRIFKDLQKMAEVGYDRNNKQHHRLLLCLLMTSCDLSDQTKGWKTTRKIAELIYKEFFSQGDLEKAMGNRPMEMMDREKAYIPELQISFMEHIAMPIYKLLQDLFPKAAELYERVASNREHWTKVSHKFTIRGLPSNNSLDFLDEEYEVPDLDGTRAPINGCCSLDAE

SMILES	IC50 (PDE2A (NM002599)) [µM]	IC50 (PDE10A1 (AB 020593)) [µM]	melting point [°C]	effect in the light and dark box test (anxiolytic) (mice [1])	effect in the forced swim test (antidepressant; immobility time) (mice [2])	effect in the novel object recognition test (cognition enhancing) (Female Wistar-rats)
CCc1nc(C)c2nnc3ccc(OC)nc3n12 [Example 2, 1-ethyl-8-methoxy-3-methyl-imidazo[5,1-c]pyrido[2,3-e][1,2,4]triazine]	0.399	0.297	202 to 203			
CCc1ncc2nnc3ccc(OC)nc3n12 [Example 3, 1-ethyl-8-methoxy-imidazo[5,1-c]pyrido[2,3-e][1,2,4]triazine]	> 1	4.46	167 to 168			
COc1ccc2nnc3c(C)nc(-c4ccccc4)n3c2n1 [Example 4, 8-methoxy-3-methyl-1-phenyl-imidazo[5,1-c]-pyrido[2,3-e][1,2,4]triazine]	0.0893	0.131	214 to 217			
COc1ccc2nnc3c(C)ncn3c2n1 [Example 5, 8-methoxy-3-methyl-imidazo[5,1-c]-pyrido[2,3-e][1,2,4]triazine]	> 10	> 1	213 to 214			
COc1ccc2nnc3cnc(C(C)C)n3c2n1 [Example 7, 1-isopropyl-8-methoxy-imidazo[5,1-c]-pyrido[2,3-e][1,2,4]triazine]	2.98	2.89	159 to 162			
COc1ccc2nnc3cnc(-c4ccccc4Cl)n3c2n1 [Example 8, 1-(2-chlorophenyl)-8-methoxy-imidazo[5,1-c]pyrido[2,3-e][1,2,4]triazine]	0.0965	0.454	190 to 193			
COc1ccc2nnc3c(C)nc(-c4ccccn4)n3c2n1 [Example 10, 8-methoxy-3-methyl-1-(2-pyridyl)-imidazo[5,1-c]-pyrido[2,3-e][1,2,4]triazine]	2.2	3.81	216 to 220			
CCC(C)c1nc(C)c2nnc3ccc(OC)nc3n12 (stereo not shown) [Example 12, 8-methoxy-3-methyl-1-(sec-butyl)-imidazo[5,1-c]-pyrido[2,3-e][1,2,4]triazine]	0.136	0.0948	157 to 159			
COc1ccnc2c1nnc1c(C)nc(-c3cnccc3C)n12 [Example 115, 4-methoxy-7-methyl-9-(4-methylpyridin-3-yl)imidazo[5,1-c]pyrido[2,3-e][1,2,4]triazine]	1.95	0.0424				
COc1ccnc2c1nnc1c(C)nc(-c3cccnc3C)n12 [Example 116, 4-methoxy-7-methyl-9-(2-methylpyridin-3-yl)imidazo[5,1-c]pyrido[2,3-e][1,2,4]triazine]	1.15	0.0151				
COc1ccc2nnc3c(C4CC4)nc(-c4cccc(Cl)c4)n3c2n1 [Example 121, 1-(3-Chloro-phenyl)-3-cyclopropyl-8-methoxy-imidazo[5,1-c]pyrido[2,3-e][1,2,4]triazine]	0.136	> 0.5	155			
COc1ccc2nnc3c(C4CC4)nc(-c4ccccn4)n3c2n1 [Example 122, 3-Cyclopropyl-8-methoxy-1-pyridin-2-yl-imidazo[5,1-c]pyrido[2,3-e][1,2,4]triazine]	5.19	8.1	162 to 164			
COc1ccc2nnc3c(-c4ccccc4)ncn3c2n1 [Example 124, 8-Methoxy-3-phenyl-imidazo[5,1-c]pyrido[2,3-e][1,2,4]triazine]	> 0.5	> 0.5	225 to 227			
c1ccc(-c2ncn3c2nnc2cccnc23)cc1 [Example 125, 3-phenyl-imidazo[5,1-c]pyrido[2,3-e][1,2,4]triazine]	> 1	> 1	225 to 227			

Further compounds by falling IC50 (PDE2A (NM002599)), results first:

IC50 (PDE2A (NM002599)) [µM]	IC50 (PDE10A1 (AB 020593)) [µM]	melting point [°C]	SMILES	effect in the light and dark box test (anxiolytic) (mice [1])	effect in the forced swim test (antidepressant; immobility time) (mice [2])	effect in the novel object recognition test (cognition enhancing) (Female Wistar-rats)
0.0887	0.102	163 to 165	CCCc1nc(C)c2nnc3ccc(OC)nc3n12 [Example 1, 8-methoxy-3-methyl-1-propyl-imidazo[5,1-c]-pyrido[2,3-e][1,2,4]triazine]			
0.0563	0.0414	174 to 177	COc1ccc2nnc3c(C)nc(C4CCCCC4)n3c2n1 [Example 11, 8-methoxy-3-methyl-1-(cyclohexyl)-imidazo[5,1-c]-pyrido[2,3-e][1,2,4]triazine]			
0.041	0.24	130	Cc1cn(-c2ccc3nnc4c(C)nc(-c5cc(Cl)ccc5Cl)n4c3n2)c(-c2cc(Cl)ccc2Cl)n1 [Example 119, 1-(2,5-dichloro-phenyl)-8-[2-(2,5-dichloro-phenyl)-4-methyl-imidazol-1-yl]-3-methyl-imidazo[5,1-c]pyrido[2,3-e][1,2,4]triazine]			
0.0303	0.0129	143.5 to 145	COc1ccc2nnc3c(C)nc(CC(C)C)n3c2n1 [Example 13, 8-methoxy-3-methyl-1-(iso-butyl)-imidazo[5,1-c]-pyrido[2,3-e][1,2,4]triazine]			
0.0118	0.228	151 to 154	Cc1nc(-c2cc(Cl)ccc2Cl)n2c1nnc1ccc(Cl)nc12 [Example 118, 8-chloro-1-(2,5-dichloro-phenyl)-3-methyl-imidazo[5,1-c]pyrido[2,3-e][1,2,4]triazine]			
0.00513	0.0157	251 to 254	Cc1nc(-c2ccccc2Cl)n2c1nnc1ccc(N3CCOCC3)nc12 [Example 123, 1-(2-Chloro-phenyl)-3-methyl-8-morpholin-4-yl-imidazo[5,1-c]pyrido[2,3-e][1,2,4]triazine]			
0.00383	0.0209		COc1ccc2nnc3c(C)nc(-c4ccccc4Cl)n3c2n1 [Example 6, 1-(2-chlorophenyl)-8-methoxy-3-methyl-imidazo[5,1-c]-pyrido[2,3-e][1,2,4]triazine]	anxiolytic effect; also recorded: significant effect	antidepressant effect; also recorded: significant effect	significant effect
0.00325	0.0277		Cc1nc(-c2ccccc2Cl)n2c1nnc1ccc(O)nc12 [Example 117, 1-(2-Chloro-phenyl)-8-hydroxy-3-methyl-imidazo[5,1-c]pyrido[2,3-e][1,2,4]triazine]			
0.00324	0.048		Cc1nc(-c2cc(Cl)ccc2Cl)n2c1nnc1ccc(N3CCCC3)nc12 [Example 120, 1-(2,5-Dichloro-phenyl)-3-methyl-8-pyrrolidin-1-yl-imidazo[5,1-c]pyrido[2,3-e][1,2,4]triazine]			
